# Source: article PMC11306024, “Novel metabolite madeirone and neomarinone extracted from Streptomyces aculeoletus as marine antibiofilm and antifouling agents” (Frontiers in Chemistry, 2024)
# Read-outs that look alike come from different tables or passages of the source.
# Tested on: Daphnia magna
# Conditions: 100 µg/mL
# Description: The in vivo evaluation of compounds (1) and (2) for acute toxicity was performed towards marine bacterium Aliivibrio fischeri, and planktonic crustacean Daphnia magna. The chronic ecotoxicity tests were evaluated using algae Pseudokirchneriella subcapitata and Phaeodactylum tricornutum.
# The immobilization of D. magna at 24 h and 48 h was studied following a micro adaptation of the OECD Guideline 202 procedures (“Daphnia sp., Acute Immobilisation Test and Reproduction Test”), using the Daphtoxkit F (Microbiotests, Gent, Belgium). Firstly, the ISO matrix medium was prepared, aerated and adjusted to pH 7. Next, the neonate daphnids were incubated for 72 h at 20 ± 1°C with light and fed spirulina 2 h prior to use, according to the manufacturer’s instructions. […] For the miniaturization of the procedure, one daphnid neonate was exposed to each compound in 10 mL sterile tubes containing 2 mL of ISO matrix medium, with the compounds at the determined concentrations. The assays were performed in triplicate.
smiles,measurement,setting,value
"CC1=CCC[C@@H](C)[C@]1(C)CC[C@@]1(C)c2c(O)cc3c(c2O[C@@H]1C)C(=O)C(C)=C(O)C3=O [compound 2, neomarinone]",Inhibition (%) D. magna (immobilization),listed as Neomarinone (2),33.0%
same,Inhibition (%) D. magna (immobilization),listed as neomarinone (2),33%
